Results published in PubChem BioAssay (NCI).
In brackets after ≈: the same amount, converted by molar mass.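 Assay format: 96-well plates, 48-hour exposure. At the GI50, growth is halved. TGI: total growth inhibition.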

Tests used:
Experiment in all cases: NCI tumour cell line growth inhibition, 48 h
SNB-19 CNS = tested on: SNB-19 CNS
SN12C renal = tested on: SN12C renal
SNB-75 CNS = tested on: SNB-75 CNS
OVCAR-4 ovarian = tested on: OVCAR-4 ovarian
OVCAR-5 ovarian = tested on: OVCAR-5 ovarian
HCT-15 colon = tested on: HCT-15 colon
U251 CNS = tested on: U251 CNS
CAKI-1 renal = tested on: CAKI-1 renal
DMS 114 small cell lung = tested on: DMS 114 small cell lung
MDA-MB-231 breast = tested on: MDA-MB-231 breast

Compound | TGI (SNB-19 CNS) | TGI (SN12C renal) | TGI (SNB-75 CNS) | TGI (OVCAR-4 ovarian) | TGI (OVCAR-5 ovarian) | TGI (HCT-15 colon) | TGI (U251 CNS) | TGI (CAKI-1 renal) | TGI (DMS 114 small cell lung) | TGI (MDA-MB-231 breast) | GI50 (SNB-75 CNS) | GI50 (OVCAR-4 ovarian) | GI50 (OVCAR-5 ovarian) | GI50 (HCT-15 colon) | GI50 (U251 CNS) | GI50 (CAKI-1 renal) | GI50 (DMS 114 small cell lung)
COc1ccc(N2C(=O)[C@@H]3[C@@H]4CC(C)CC[C@@H]4c4c([nH]c5ccccc45)[C@@H]3C2=O)cc1 (stereo not given in full) | 29.6 µM | 32.5 µM | 12.4 µM | 37 µM | > 100 µM | > 50.2 µM | 28.8 µM | > 72.9 µM | > 59.5 µM |  |  |  |  |  |  |  | 
Cc1[nH]c2c(C)c3c([nH]c4ccc(Cl)cc43)c(C)c2c(=O)c1C | > 100 µM | 15.1 µM | > 92.5 µM | > 64.1 µM | 12.4 µM | 5.72 µM | 23.3 µM | 40.2 µM | 83.3 µM | 7.54 µM |  |  |  |  |  |  | 
O=C1OCc2nc3c(c(-c4ccccc4C(F)(F)F)c21)C(=O)OC3 | > 100 µM | > 100 µM |  |  | > 100 µM | > 100 µM | > 100 µM |  | > 100 µM |  |  |  |  |  |  |  | 
O=C1C=C2SC3C[C@@]24CC1(O)[N+]1=c2c4c(c(O)c4c2=C(C=N4)CC1)N3 | 3.12 µM | 2 µM | 3.23 µM | 2.53 µM | 3.8 µM | 3.92 µM | 3.14 µM | 4 µM | 0.504 µM |  |  |  |  |  |  |  | 
Cc1c2ccncc2c(C)c2c1[nH]c1ccc(O)cc12 |  | 0.0638 µg/mL |  | 0.303 µg/mL | 0.831 µg/mL | 0.361 µg/mL | 0.35 µg/mL | 0.0686 µg/mL | 0.227 µg/mL |  | 22600 µM | 0.148 µg/mL (≈ 0.564 µM) | 0.239 µg/mL (≈ 0.909 µM) | 0.0107 µg/mL (≈ 0.0409 µM) | 0.042 µg/mL (≈ 0.16 µM) | 0.0137 µg/mL (≈ 0.0522 µM) | 0.0226 µg/mL (≈ 0.0863 µM)
CSC(SC)=C(C#N)C(=O)Nc1ccc(Cl)cc1 | > 100 µM | > 100 µM | > 100 µM | > 100 µM | > 100 µM | > 100 µM | > 100 µM | 78.9 µM |  | > 100 µM |  |  |  |  |  |  | 
Cc1nc2nnc(CCCCCCCCc3nnc4nc(C)[nH]n34)n2[nH]1 | > 100 µM | > 100 µM | > 100 µM | > 100 µM | > 100 µM | > 100 µM | > 100 µM | > 100 µM |  | > 100 µM |  |  |  |  |  |  | 
O=C(CC(C(=O)c1ccsc1)c1cccs1)c1cccs1 (stereo not given) | > 100 µM | > 100 µM | > 100 µM | > 100 µM | > 100 µM | > 100 µM | > 100 µM |  | > 100 µM |  |  |  |  |  |  |  | 
Cc1cccc(NC(=S)NNC(=O)c2cc(-c3ccccc3)nc3ccccc23)c1 | > 100 µM | > 100 µM | > 100 µM | > 100 µM | > 100 µM | > 100 µM | 89.9 µM | 72.4 µM |  | 95 µM |  |  |  |  |  |  | 
O=C1OCOC2(CCCC2)C1c1ccccc1 (stereo not given) | > 100 µM | > 100 µM | > 100 µM | > 100 µM | > 100 µM | > 100 µM | > 100 µM | > 100 µM |  | > 100 µM |  |  |  |  |  |  | 
O=C(O)c1ccccc1Sc1ccc(C=C2NC(=S)N(c3ccccc3)C2=O)s1 | > 100 µM | > 100 µM | > 100 µM | 59.8 µM | > 100 µM | > 100 µM | > 100 µM | > 100 µM |  | > 100 µM |  |  |  |  |  |  | 
COC(=O)c1sc2c(c1C(=O)OC)C(=Nc1ccc(OC)cc1)SC2=Nc1ccc(OC)cc1 | 2.88 µM | 1.94 µM | 1.24 µM | 2.83 µM | 3.55 µM | 1.66 µM | 1.03 µM | 5.84 µM |  | 2.35 µM |  |  |  |  |  |  | 
Cc1ccc([N+](=O)[O-])cc1S(=O)(=O)Nc1ccc(C2=NN(S(=O)(=O)c3cc([N+](=O)[O-])ccc3C)C(c3ccccc3O)C2)cc1 (stereo not given) | > 100 µM | > 100 µM | > 100 µM | > 100 µM | > 100 µM | > 100 µM | > 100 µM | > 100 µM |  | > 100 µM |  |  |  |  |  |  | 
Clc1ccc(Cc2nc3cc(Cl)c(Cl)cc3n2CC2CCCN3CCCCC23)cc1 (stereo not given) | 27.1 µM | 25.4 µM | 21.6 µM | 79.4 µM | 26 µM | 23.3 µM | 20.8 µM | 34.1 µM |  | 19.3 µM |  |  |  |  |  |  | 
CCN(CC)C(=O)N[C@@H](CC(C)C)C(=O)NC | > 100 µM | > 100 µM | > 100 µM | > 100 µM | > 100 µM | > 100 µM | > 100 µM | > 100 µM |  | > 100 µM |  |  |  |  |  |  | 
COC(OC)c1cccc2c1C(=O)CCC1(CC2)OCCCCO1 | > 100 µM | > 100 µM | > 100 µM | > 100 µM | > 100 µM | > 100 µM | > 100 µM | > 100 µM | > 100 µM |  |  |  |  |  |  |  | 
CN(CCNC(=O)c1nn(C)c2c1Cc1ccccc1-2)CCNC(=O)c1nn(C)c2c1Cc1ccccc1-2 | 31.8 µM | 30.8 µM | 28.4 µM | 53.1 µM | 89 µM | 34.4 µM | 28.9 µM | 47.4 µM |  | 38.1 µM |  |  |  |  |  |  | 

Compound | TGI (SNB-19 CNS) | TGI (SN12C renal) | TGI (SNB-75 CNS) | TGI (OVCAR-4 ovarian) | TGI (OVCAR-5 ovarian) | TGI (HCT-15 colon) | TGI (U251 CNS) | TGI (CAKI-1 renal) | TGI (DMS 114 small cell lung) | TGI (MDA-MB-231 breast) | GI50 (SNB-75 CNS) | GI50 (OVCAR-4 ovarian) | GI50 (OVCAR-5 ovarian) | GI50 (HCT-15 colon) | GI50 (U251 CNS) | GI50 (CAKI-1 renal) | GI50 (DMS 114 small cell lung)
Cc1c(CCCl)c(Cl)n2c(nc3ccccc32)c1C#N | 5.88 µM | 1.5 µM | 14.1 µM | 3.29 µM | 4.1 µM | 1.98 µM | 2.34 µM | 2.25 µM | 2.84 µM | 17.9 µM |  |  |  |  |  |  | 
CNC(=O)OC1/C(C)=C\C(C)C(O)C(OC)CC(C)CC2=C(OC)C(=O)C=C(C2=O)N(C)C(=O)/C(C)=C/C=C\C1OC (stereo not given) | > 75.8 µM | 16.5 µM | 28.6 µM | 22 µM | 22.7 µM | 17.5 µM | 31.4 µM | 20.8 µM | 12.6 µM | 6.44 µM |  |  |  |  |  |  | 
C=CCN(C(C)=O)c1cc(OCc2ccccc2)c2c(c1)c(C)cn2S(=O)(=O)c1ccccc1 | > 100 µM | > 100 µM | > 100 µM | > 100 µM | > 100 µM | > 100 µM | > 100 µM | > 54.7 µM |  | > 70.8 µM |  |  |  |  |  |  | 
CCN(CC)C(=O)Cc1[nH][nH]c(=O)c1C(=O)N(CC)CC | > 100 µM | > 100 µM | > 100 µM | > 100 µM |  | > 100 µM | > 100 µM |  | > 100 µM |  |  |  |  |  |  |  | 
CCCCCCCC(=O)NC(C)(C)C(=O)NCC(=O)NC(CC(C)C)C(=O)NC(C)(C)C(=O)NCC(=O)NCC(=O)NC(CC(C)C)C(=O)NC(C)(C)C(=O)NCC(=O)NC(C(=O)NC(CO)CC(C)C)C(C)CC (stereo not given) | 6.83 µM | 7.7 µM | 7.28 µM | 7.9 µM | 6.94 µM | 10.3 µM | 5.33 µM | 8.07 µM |  | 7.38 µM |  |  |  |  |  |  | 
C[N+]1(CC[N+]2(C)CCCC2c2cccnc2)CCCC1c1cccnc1 (stereo not given) | > 100 µM | > 100 µM | > 100 µM | > 100 µM | > 100 µM | > 100 µM | > 100 µM | > 100 µM |  | > 100 µM |  |  |  |  |  |  | 
O=S(c1ccc(O)cc1)c1ccc(O)cc1 | > 100 µM |  | > 100 µM | > 100 µM | > 100 µM | > 100 µM | > 100 µM | > 100 µM | > 100 µM |  |  |  |  |  |  |  | 
CC(=O)OC1COC(N2C(=O)C(=O)c3ccccc32)C(OC(C)=O)C1OC(C)=O (stereo not given) | > 100 µM | > 100 µM | > 100 µM | > 100 µM |  | > 100 µM | > 100 µM | > 100 µM | > 100 µM |  |  |  |  |  |  |  | 
O=C1N[C@@H]([C@H]2CC[C@H](Cl)CN2)C(=O)N[C@H]1[C@H]1CC[C@H](Cl)CN1 | 104 µM | 18.9 µM | 3.65 µM | 8.78 µM | 9.05 µM | 57.5 µM | 12.3 µM | 3.06 µM | 10.6 µM | 6.43 µM |  |  |  |  |  |  | 
C/C(=C\COP(=O)(O)OP(=O)(O)O)CC/C=C(\C)CNc1c(F)c(F)c(F)c(F)c1F | > 100 µM | > 100 µM | > 31.6 µM | > 100 µM | > 100 µM | > 100 µM | > 100 µM | > 100 µM |  | > 100 µM |  |  |  |  |  |  | 
CCOC(=O)c1cccc(N=NNc2cccc(C(=O)OCC)c2)c1 | 46.2 µM | 73.5 µM | 36.9 µM | 63 µM | > 100 µM | > 100 µM | 46.6 µM | > 100 µM |  | 53.3 µM |  |  |  |  |  |  | 
COc1cc2c(c(O)c1OC)C(O)C1CCC(=O)N1C2c1ccc2c(c1)OCO2 (stereo not given) | > 100 µM | > 100 µM | > 100 µM | > 100 µM | > 100 µM | > 100 µM | > 100 µM | > 100 µM |  | > 100 µM |  |  |  |  |  |  | 
CCCC(O)c1ccc2[nH]c3c(C)cc([N+](=O)[O-])c(C)c3c2c1 (stereo not given) | > 100 µM | > 100 µM | > 100 µM | > 100 µM | > 100 µM | > 100 µM |  | > 100 µM | > 100 µM |  |  |  |  |  |  |  | 
O=[N+]([O-])C(/C=C(\Cl)[N+](=O)[O-])=C(N1CCOCC1)N1CCOCC1 | > 100 µM | > 100 µM | > 100 µM | 53.9 µM | 57.2 µM | > 100 µM | 46.7 µM | 61 µM |  | 43.7 µM |  |  |  |  |  |  | 
Cc1cc2c3ccccc3n3c2c2c1OC1(C)CCC(C2C1)C3(C)C (stereo not given) | > 25 µM | > 25 µM |  | > 25 µM | > 25 µM | > 25 µM | > 25 µM |  | > 25 µM |  |  |  |  |  |  |  | 
CC(C)C(Sc1nc(N)nc2nc[nH]c12)C(=O)O (stereo not given) | > 100 µM | > 100 µM | > 100 µM | > 100 µM | > 100 µM | > 100 µM | > 100 µM | > 100 µM |  | > 100 µM |  |  |  |  |  |  | 
